From ChEMBL document CHEMBL1201862, “PubChem BioAssay data set” (2004) come the findings set out here.

Structures are written as SMILES.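 Values below derive from 48-hour exposures of cells grown in 96-well plates, with endpoints linearly interpolated between the two concentrations bracketing the appropriate inhibition level. Abbreviation: GI50, concentration required for 50% inhibition of growth.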 The source made the active and inactive calls. Rule as the data show it: active = GI50 up to about 1.1 µM and inactive = higher.

Test systems include COLO 205; DU-145; HCC 2998; HCT-116; HL-60; MCF7; MDA-MB-435; MOLT-4; NCI-H522; NCI/ADR-RES; OVCAR-4; OVCAR-5; OVCAR-8; RPMI-8226; SF-295; SK-MEL-28; SK-MEL-2; SNB-75; U-251; UACC-257.
Experiment in all cases: growth of human tumour cells (NCI), 48 h

As for `OC(c1cc(-c2ccc(Cl)cc2)nc2ccccc12)C1CCCCN1` (stereo not given), the GI50 in the assay on COLO 205 was 1.73 µM (inactive); in the assay with DU-145, 1.74 µM (inactive); in the assay with HCC 2998, 2.08 µM (inactive); with HCT-116, 1.92 µM (inactive); in the assay with HL-60, 2.39 µM (inactive); in the assay with MCF7 it was 1.82 µM (inactive). In addition, the GI50 in the assay with MDA-MB-435 was 2.09 µM (inactive); with MOLT-4, 2.37 µM (inactive); in the assay with NCI-H522, 1.27 µM (inactive); in the assay on NCI/ADR-RES it was 2.38 µM (inactive); in the assay on OVCAR-4, 2.28 µM (inactive); in the assay on OVCAR-5, 2.16 µM (inactive). Further, the GI50 in the assay with OVCAR-8 was 2.08 µM (inactive); in the assay on RPMI-8226 it was 1.37 µM (inactive); in the assay on SF-295, 1.94 µM (inactive); with SK-MEL-28, 1.87 µM (inactive); in the assay on SK-MEL-2, 2.03 µM (inactive); in the assay on SNB-75, 2.43 µM (inactive). The GI50 is 1.84 µM (inactive) in the assay on U-251 and 2.66 µM (inactive) in the assay on UACC-257.
On to `COc1cc(OC)cc(Oc2nc3ccccc3nc2C(F)(F)F)c1`, for which the GI50 with COLO 205 was > 100 µM (inactive); in the assay on DU-145, > 100 µM (inactive); with HCC 2998 it was > 100 µM (inactive); with HCT-116 it was > 100 µM (inactive); in the assay on HL-60, 22.3 µM (inactive); in the assay on MCF7, > 100 µM (inactive). The GI50 is 3.41 µM (inactive) with MDA-MB-435; > 100 µM (inactive) in the assay with MOLT-4; > 100 µM (inactive) with NCI-H522; > 100 µM (inactive) with NCI/ADR-RES; > 100 µM (inactive) with OVCAR-4; 45.1 µM (inactive) in the assay on OVCAR-5. Further, the GI50 is > 100 µM (inactive) in the assay on OVCAR-8; > 100 µM (inactive) in the assay with RPMI-8226; 28.8 µM (inactive) with SF-295; > 100 µM (inactive) in the assay on SK-MEL-28; 48.6 µM (inactive) in the assay on SK-MEL-2; 21.9 µM (inactive) in the assay on SNB-75. In addition, the GI50 is 27.2 µM (inactive) with U-251 and > 100 µM (inactive) in the assay with UACC-257.
For `Cc1ccccc1C(=O)NC(O)(C(F)(F)F)C(F)(F)F`, the GI50 in the assay on COLO 205 was > 100 µM (inactive); in the assay with DU-145, > 100 µM (inactive); in the assay with HCC 2998, > 100 µM (inactive); with HCT-116, > 100 µM (inactive); in the assay on HL-60 it was 54.7 µM (inactive); in the assay on MCF7 it was > 100 µM (inactive). The GI50 in the assay on MDA-MB-435 is > 100 µM (inactive); with MOLT-4 it was 35.9 µM (inactive); in the assay on NCI-H522 it was 47 µM (inactive); in the assay with NCI/ADR-RES it was 70 µM (inactive); with OVCAR-4, 51.8 µM (inactive); in the assay on OVCAR-5 it was > 100 µM (inactive). For the same compound, the GI50 is > 100 µM (inactive) with OVCAR-8; 49.1 µM (inactive) with RPMI-8226; > 100 µM (inactive) with SF-295; > 100 µM (inactive) with SK-MEL-28; 56.1 µM (inactive) with SK-MEL-2; 0.0302 µM (active) in the assay on SNB-75. The GI50 was > 100 µM (inactive) in the assay on U-251 and 61.9 µM (inactive) in the assay with UACC-257.
Take `N#CC1(C2SCC[S+]2[O-])C2=C(C(=O)c3ccccc3C2=O)N2CCCC21` (stereo not given): the GI50 in the assay on COLO 205 is 2.24 µM (inactive); in the assay with DU-145, 2.18 µM (inactive); in the assay on HCC 2998, 4.85 µM (inactive); with HCT-116, 2 µM (inactive); in the assay on HL-60, 1.55 µM (inactive); with MCF7 it was 1.63 µM (inactive). Moreover, the GI50 with MDA-MB-435 was 0.497 µM (active); in the assay with MOLT-4, 3.06 µM (inactive); in the assay on NCI-H522 it was 2.11 µM (inactive); with NCI/ADR-RES, 3.12 µM (inactive); in the assay with OVCAR-4, 1.7 µM (inactive); in the assay with OVCAR-5, 3.78 µM (inactive). Also, the GI50 with OVCAR-8 was 2.18 µM (inactive); with RPMI-8226, 1.05 µM (active); in the assay on SF-295, 1.99 µM (inactive); in the assay on SK-MEL-28, 2.85 µM (inactive); in the assay with SK-MEL-2 it was 1.69 µM (inactive); with SNB-75, 3.23 µM (inactive). Further, the GI50 is 3.4 µM (inactive) with U-251 and 1.36 µM (inactive) in the assay with UACC-257.
In the case of `COCn1cnc2c(=O)n(-c3ccc(OC)cc3)c(=S)n(-c3ccc(OC)cc3)c21`, the GI50 with COLO 205, in the assay with DU-145, in the assay with HCC 2998, with HCT-116, in the assay on HL-60 and in the assay on MCF7 was > 100 µM (inactive) throughout. The GI50 in the assay on MDA-MB-435 is > 100 µM (inactive); in the assay with MOLT-4, > 100 µM (inactive); with NCI-H522, > 100 µM (inactive); in the assay on NCI/ADR-RES, > 100 µM (inactive); in the assay on OVCAR-4, 89.3 µM (inactive); in the assay on OVCAR-5, > 100 µM (inactive). The GI50 with OVCAR-8, with RPMI-8226, in the assay on SF-295, in the assay on SK-MEL-28, with SK-MEL-2 and in the assay with SNB-75 was > 100 µM (inactive) each time. For the same compound, the GI50 in the assay on U-251 and in the assay with UACC-257 was > 100 µM (inactive) each time.
For `N=c1sc(N2CCOCC2)nn1CC(=O)c1ccccc1`, the GI50 in the assay with COLO 205 is > 100 µM (inactive); in the assay with DU-145, > 100 µM (inactive); with HCC 2998, > 100 µM (inactive); in the assay with HCT-116, > 100 µM (inactive); in the assay on HL-60, > 100 µM (inactive); in the assay on MCF7, 53.5 µM (inactive). Also, the GI50 with MDA-MB-435, in the assay with MOLT-4, in the assay with NCI-H522, in the assay on NCI/ADR-RES, in the assay on OVCAR-4 and with OVCAR-5 was > 100 µM (inactive) in each case. In addition, the GI50 with OVCAR-8, with RPMI-8226, in the assay with SF-295, with SK-MEL-28, in the assay on SK-MEL-2 and in the assay with SNB-75 was > 100 µM (inactive) throughout. In addition, the GI50 in the assay with U-251 and in the assay with UACC-257 was > 100 µM (inactive) throughout.
For `CCc1nc(N)nc(N)c1-c1ccc(N(C)Cc2ccccc2)c([N+](=O)[O-])c1`, the GI50 was 0.522 µM (active) in the assay on COLO 205; 0.215 µM (active) with DU-145; 0.345 µM (active) with HCC 2998; < 0.01 µM (active) with HCT-116; < 0.01 µM (active) in the assay on HL-60; 0.202 µM (active) with MCF7. For the same compound, the GI50 was 0.0811 µM (active) in the assay with MDA-MB-435; 0.059 µM (active) in the assay on MOLT-4; 1.15 µM (inactive) in the assay on NCI-H522; 0.184 µM (active) in the assay with NCI/ADR-RES; 5.15 µM (inactive) with OVCAR-4; 8.17 µM (inactive) in the assay on OVCAR-5. The GI50 is 0.0466 µM (active) with OVCAR-8; 0.191 µM (active) in the assay with RPMI-8226; 0.0522 µM (active) in the assay with SF-295; 4.79 µM (inactive) in the assay with SK-MEL-28; 7.74 µM (inactive) in the assay with SK-MEL-2; 2.22 µM (inactive) with SNB-75. The results for the GI50 with U-251 and in the assay with UACC-257 were 0.0374 µM (active) and 2.58 µM (inactive), respectively.
